Experiments:
interleukin 12 = assay: Inhibition of the IL 12 production in LPS-stimulated THP-1 cells; format: cell-based; conditions: Homo sapiens, 0.1 μg/ml LPS overnight, read-out: Inhibition of the IL 12 Secretion (IC50)
Description: (§1) The inhibition of the cytokine production can be visualized, for example, by measuring TNFα and interleukin 12 in lipopolysaccharide (LPS)-stimulated THP-1 cells.
(§2) For this purpose, 2.5×10^5 THP-1 cells (American Type Culture Company, Rockville, Md.)/ml of RPMI 1640 medium (Life Technologies)/10% FCS (Life Technologies, Cat. No. 10270-106) are grown on 96-hole flat-bottomed cell culture plates (TPP, Product No.9296) (100 μl/hole). The compounds according to the invention are added at various concentrations and pre-incubated for 30 minutes. The pre-dilution of the test substances was performed in the incubation medium. The addition of the test substances is carried out as a 2× concentrated substance solution (100 μl/hole). The stimulation of the cells was carried out overnight at 37° C with 0.1 μg/ml of LPS (Sigma L2630, of E. Coli Serotype 011 1.B4). Then, the medium was harvested, and the amount of TNFα or the amount of interleukin 12 was quantitatively determined. To measure the TNFα, a commercially available TNFα kit of the CIS Bio International Company was used (Product No. 62TNFPEB). The amount of interleukin 12 was implemented with the aid of the ORIGEN technology (IGEN International, Inc., Gaithersburg, Md.). The calculated IC50 value corresponds to the concentration of test substance that is required to reach a 50% inhibition of the maximum TNFα or interleukin 12 production. […]

TNFα [1] = assay: Inhibition of the TNFα production in LPS-stimulated THP-1 cells; format: cell-based; conditions: Homo sapiens, 0.1 μg/ml LPS overnight, read-out: Inhibition of the TNFα Secretion (IC50)
Description: as §1, §2

IFNγ = assay: Inhibition of the IFNγ production of peripheral mononuclear blood cells (phytohemagglutinin-stimulated); format: cell-based; conditions: human peripheral mononuclear blood cells, 5 μg/mL phytohemagglutinin, 48 hours; read-out: Inhibition of the IFNγ Secretion (IC50)
Description: To visualize the effect of the substances on T-cell activation, for example, the measurement of the IFNγ-secretion can be used.
To isolate peripheral mononuclear cells, human whole blood was used (drawing of blood via Na-citrate S-monovettes “Coagulation 9 NC/10 ml”/Sarstedt). The build-up of the blood cells was accomplished with the aid of density gradient centrifuging: For this purpose, 15 ml of Histopaque 1077 (Sigma, Cat. No. H8880) in LEUCOSEP tubes (Greiner, Cat. No. 227290) is introduced and centrifuged for 30 seconds at 1000 g. Then, 15 ml of whole blood is added and centrifuged for 10 minutes at 1000 g. Finally, the upper plasma layer is pipetted off and the subjacent cell layer (peripheral mononuclear blood cells) is transferred in 15 ml sample tubes (Falcon) and then […] several times with 10 ml of HBSS (HANKS Balanced Solution (without Mg2+ and Ca2+), Cat. No. 14175-53). […]
Then the medium was harvested, and the amount of IFNγ was determined quantitatively. The amount of IFNγ was determined with the aid of the ORIGEN technology (IGEN International, Inc., Gaithersburg, Md.). […]

microglia = assay: Inhibition of the microglia activation; format: cell-based
From the text: Compounds that with stimulation with the Aβ-peptide achieve an inhibition of the microglia activity of at least 20% and an inhibition of the cytokine activity of at least 30% are suitable, according to the invention, as microglia inhibitors. The biological properties of the microglia inhibitors can be shown according to the methods that are known to one skilled in the art, for example with the aid of the testing methods that are described below and in WO 01/51473.

IL-12 HD p70 = assay: Inhibition of IL-12 HD p70 production of peripheral mononuclear blood cells stimulated with LPS and IFNγ; format: cell-based, human; conditions: 24 hours; for IC50: Homo sapiens, read-out: Inhibition of IL-12HD Secretion after LPS & IFNg Stimulation IC50
Description: (§3) The inhibition of the TNFα and IL-12 HD p70 production is visualized by, for example, measuring TNFα and IL-12 HD p70 in peripheral mononuclear blood cells that are stimulated with lipopolysaccharide (LPS) and interferon gamma (IFNγ).
(§4) To isolate peripheral mononuclear blood cells, human whole blood was used (drawing of blood via Na-Citrate S-monovettes “Coagulation 9 NC/10 ml”/Sarstedt). The build-up of the lymphocytes and monocytes was accomplished with the aid of the density gradient centrifuging: For this purpose, 15 ml of Histopaque-1077 (Sigma, Cat. No. H8880) is introduced into 50 ml LEUCOSEP tubes (Greiner, Cat. No. 227290) and forced downward by centrifuging for 30 seconds at 250 g by the frits that are contained in the tubes. Then, 20 ml of whole blood is added and centrifuged for 15 minutes at 800 g and at room temperature. After centrifuging, the supernatant (plasma and thrombocytes) is pipetted off and discarded, and the subjacent cell layer (lymphocytes and monocytes) is transferred into 50 ml centrifuging tubes (Falcon) and then washed 3× in culture medium VLE RPMI 1640 (Seromed, No. FG1415) (centrifuging in each case for 10 minutes at 250 g, room temperature). Finally, the cell pellet is resuspended in culture medium VLE RPMI 1640 (Seromed, No. FG1415), 10% FCS (Life Technologies, Cat. No. 16000-044, low endotoxin, heat-inactivated for 1 hour, 56° C.), and 50 μg/ml of penicillin-streptomycin solution (Life Technologies, Cat. No.15140-106) and set at 3×10^6 cells/ml after cell counting by means of trypan blue staining. In each case, 100 μl of cell suspension solution was dispersed on 96-hole flat-bottomed cell culture plates (Costar, Product No. 3599). In each case, 100 μl of 3×-concentrated stimulation solution (3 μg/ml of LPS of E. coli Serotype 0127:B8; Sigma, Cat. No. L-4516 and 300 ng/ml of IFNγ 1b, Imukin, Boehringer Ingelheim) was added to it. The substances according to the invention were added at various concentrations as 3×-concentrated substance solution (100 μl/well). The stimulation of the cells was carried out at 37° C. and 5% CO2 over a period of 24 hours. Then, the cell culture supernatant was harvested, and the concentrations of TNFα and IL-12 HD p70 were determined by means of commercially available ELISA Kits of the BioSource International Company (TNF-α EASIA, Cat. No. KAC 1752) and R & D Systems (Quantikine1υ HS IL-12, Cat. No. HS 120).
(§5) The calculated IC50 value corresponds to the concentration of test substance that is required to reach a 50% inhibition of the maximum TNFα- or interleukin 12 HD p70 production.

TNFα [2] = assay: Inhibition of TNFα production of peripheral mononuclear blood cells stimulated with LPS and IFNγ; format: cell-based, human; conditions: 24 hours; for IC50: Homo sapiens, read-out: Inhibition of TNF-alpha Secretion after LPS & IFNg Stimulation IC50
Description: as §3, §4, §5

IL-10 = assay: Induction of IL-10 production of peripheral mononuclear blood cells; format: cell-based, human; conditions: 24 hours; for EC50: Homo sapiens, PHA, read-out: Induction of the IL-10 Secretion after PHA Stimulation EC50
Description: The induction of IL-10 production is visualized by, for example, measuring IL-10 in peripheral mononuclear blood cells that are stimulated in phytohemagglutinin (PHA) or lipopolysaccharide (LPS).
To isolate peripheral mononuclear blood cells, human whole blood was used (drawing of blood via Na-Citrate S-monovettes “Coagulation 9 NC/10 ml”/Sarstedt). The build-up of the lymphocytes and monocytes was accomplished with the aid of the density gradient centrifuging: For this purpose, 15 ml of Histopaque-1077 (Sigma, Cat. No. H8880) in 50 ml LEUCOSEP tubes (Greiner, Cat. No. 227290) is introduced and forced downward by centrifuging for 30 seconds at 250 g by the frits that are contained in the tubes. Then, 20 ml of whole blood is added and centrifuged for 15 minutes at 800 g and at room temperature. After centrifuging, the supernatant (plasma and thrombocytes) is pipetted off and discarded, and the subjacent cell layer (lymphocytes and monocytes) in 50 ml centrifuging tubes (Falcon) is transferred and then washed 3× in culture medium VLE RPMI 1640 (Seromed, No. FG1415) (centrifuging in each case for 10 minutes at 250 g, room temperature). Finally, the cell pellet is resuspended in culture medium VLE RPMI 1640 (Seromed, No. FG1415), 10% FCS (Life Technologies, Cat. No. 16000-044, low endotoxin, heat-inactivated for 1 hour, 56° C.), 50 μg/ml of penicillin-streptomycin solution (Life Technologies, Cat. No. 15140-106) and set at 3×10^6 cells/ml after cell counting by means of trypan blue staining. In each case, 100 μl of cell suspension solution was dispersed on 96-hole flat-bottomed cell culture plates (Costar, Product No. 3599). In each case, 100 μl of 3×-concentrated stimulation solution (3 μg/ml of LPS of E. coli Serotype 0127:B8; Sigma, Cat. No. L-4516 or 300 μg/ml of PHA-L, Biochrom KG, Cat. No. M5030) was added to it. The substances according to the invention were added at various concentrations as 3×-concentrated substance solution (100 μl/well). The stimulation of the cells was carried out at 37° C. and 5% CO2 over a period of 24 hours. Then, the cell culture supernatant was harvested, and IL-10 was determined quantitatively. The IL-10 concentration was determined by means of a commercially available ELISA Kit of the BioSource International Company (human IL-10, Cat. No. KHC0101C). The calculated EC50 value corresponds to the concentration of test substance that is required to increase the IL-10 secretion by 50% of the maximum increase.

Row | SMILES | IC50 (interleukin 12) | IC50 (TNFα [1]) | IC50 (IFNγ) | IC50 (microglia) | Inhibition of IL-12HD Secretion after LPS & IFNg Stimulation Effectiveness (IL-12 HD p70) | IC50 (IL-12 HD p70) | Inhibition of TNF-alpha Secretion after LPS & IFNg Stimulation Effectiveness (TNFα [2]) | IC50 (TNFα [2]) | Induction of the IL-10 Secretion after PHA Stimulation Effectiveness (IL-10) | EC50 (IL-10)
1 | Cc1ccc(-n2c(-c3ccccc3)nc3ccc(OCCCCCC(=O)O)cc32)cc1 [Substance 2, 6-[[1-(4-Methylphenyl)-2-phenyl-1H-benzimidazol-6-yl]oxy]hexanoic acid] | < 300 nM | 150 nM | 110 nM | 160 nM | 93% | 30 nM | 83% | 120 nM | 283% | 180 nM
2 | Cc1ccc(-n2c(-c3ccccc3)nc3ccc(OCCCCCC(=O)OC(C)C)cc32)cc1 [Substance 1, 6-[[1-(4-Methylphenyl)-2-phenyl-1H-benzimidazol-6-yl]oxy]hexanoic acid-isopropyl ester] | 2200 nM | 3000 nM | 1300 nM | 750 nM | 81% | 92 nM | 65% | 650 nM | 245% | > 1000 nM
